Where two headings read alike, the source gives them in different places.
Assays:
[1] = tested on: Ae. aegypti females mosquitoes; assay: Mosquito repellence test, protection period (time until the first bite), treated muslin screen over human volunteer's hand; assay type: in vivo; details: 27±1° C.; for Protection period in hrs @ 0.25 mg/cm^2: 0.25 mg/cm^2 on muslin cloth screen; for Protection period in hrs @ 0.50 mg/cm^2: 0.50 mg/cm^2 on muslin cloth screen
Description: Mosquito repellence activity was assessed on the basis of protection period (hr) offered by various analogues of DEET against Mosquito bites. The protection period was measured on the basis of the concept” time until the first bite” pioneered by Granette (Comparison of mosquito repellence test under laboratory and field conditions. Granett, P. Proc Ann Meet NJ Mosq Assoc, 1938, vol. 25, 51). Repellence tests were carried out against 3-5 days old, blood starved but sucrose fed (0.5M solution), Ae. aegypti females mosquitoes, drawn from well-established laboratory colony maintained at 27±1° C. Temperature and 70±5% Relative humidity. The light intensity was regulated at 300-500 lux for testing against laboratory, colonized Ae. aegypti, a day biting mosquito. Human volunteer's hand covered with polythene disposable gloves was introduced in the cage containing about 200 hungry mosquitoes. Mosquitoes were allowed to bite on the back of the hand through muslin screen stuck over a small window (2 cm×2 cm) cut out in the polythene bag. Various analogues of DEET were loaded on the muslin cloth screen instead of direct skin application so as to avoid the potential risk involved in the evaluation of natural products of unknown mammalian toxicity. All the test solutions were made in Analar grade Acetone The muslin cloth screen was first treated with the analogue taking two doses @0.25 mg/cm2 and 0.5 mg/cm2 and the solvent was evaporated before use. Control muslin screen was treated with solvent alone. After introduction of the hand covered with the polythene glove with the treated muslin screen into the mosquito cage, number of mosquito bites received in subsequent 5 minutes was counted. In the event of no bites in the initial 5 minutes exposure, the test hand was exposed repeatedly after every consecutive ½ hr for 5 minutes test till the time a confirmed bite was received. Number of hours before the receipt of a confirmed bite (Techniques for the evaluation of insect repellents. A critical review (Schreck, C. E, Ann Rev Entomol, 1977, vol 22, 101) represented the protection period offered by the test compound. In control rate of mosquito bite was 10-12 bites/min. All the tests were carried out at 27±1° C. temperature between 9.00-17.00 hrs.

[2] = tested on: insect bites; details: cited from earlier work
[3] = tested on: Anopheles stephensi Liston; details: against Anopheles stephensi Liston; topical, human volunteers; cited from earlier work
[4] = tested on: Aedesaegypti (L.); details: against Aedesaegypti (L.); topical, human volunteers; cited from earlier work

| melting point [°C] | SMILES | Protection period in hrs @ 0.25 mg/cm^2 [1] [h] | Protection period in hrs @ 0.50 mg/cm^2 [1] [h] | also measured |
| --- | --- | --- | --- | --- |
|  | C[Si]1(C)CCN(C(=O)c2cnccn2)CC1 | 2.14 ± 0.76 | 4.22 ± 0.69 |  |
|  | Cc1ccc(C(=O)N2CC[Si](C)(C)CC2)cc1 | 3.08 ± 0.056 | 4.16 ± 0.067 |  |
| 65 to 67 | C[Si]1(C)CCN(C(=O)c2ccccc2)CC1 |  |  |  |
|  | Cc1cccc(C(=O)N2CC[Si](C)(C)CC2)c1 [drawing 33] | 1.47 ± 0.13 | 2.15 ± 0.072 |  |
|  | CCN(CC)C(=O)c1cccc(C)c1 [DEET, N,N-Diethyl-meta-toluamide] |  |  | hours of protection ([2]; 100% DEET): up to 12 hours; hours of protection ([2]; lower concentrations of 20%-40% DEET): 3 to 8 h |
|  | CCN(CC)C(=O)Cc1cccc(C(F)(F)F)c1 [N,N-diethyl[(alpha,alpha,alpha-trifluoro-m-tolyl)]acetamide] |  |  | biting-deterrent activities compared with DEET [3]: superior to DEET; biting-deterrent activities compared with DEET [4]: superior to DEET |
| 79 to 81 | C[Si]1(C)CCN(C(=O)c2cc(Cl)ccc2Cl)CC1 |  |  |  |
|  | Cc1ccccc1C(=O)N1CC[Si](C)(C)CC1 | 4.09 ± 0.053 | 5.41 ± 0.135 |  |
|  | CCCCCCCCCCC(=O)N1CC[Si](C)(C)CC1 | 2.14 ± 0.065 | 5.05 ± 0.207 |  |
| 101 to 103 | C[Si]1(C)CCN(C(=O)c2ccccn2)CC1 |  |  |  |
|  | CCN(CC)C(=O)c1cccc(C(F)(F)F)c1 [N,N,diethyl[3-(trifluoromethyl)]benzamide] |  |  | biting-deterrent activities compared with DEET [3]: superior to DEET; biting-deterrent activities compared with DEET [4]: superior to DEET |
|  | CCN(CC)C(=O)Cc1cccc(Br)c1 [N,N-diethyl(3-bromophenyl) acetamide] |  |  | biting-deterrent activities compared with DEET [3]: superior to DEET; biting-deterrent activities compared with DEET [4]: superior to DEET |

| SMILES | melting point [°C] | Protection period in hrs @ 0.25 mg/cm^2 [1] [h] | Protection period in hrs @ 0.50 mg/cm^2 [1] [h] | also measured |
| --- | --- | --- | --- | --- |
| Cc1cccc(C(=O)N2CC[Si](C)(C)CC2)c1 | 65 to 68 |  |  |  |

From patent publication US9661855B2, “Cyclic aza-sila compounds as insect repellants” (COUNCIL OF SCIENTIFIC & INDUSTRIAL RESEARCH, priority 2012, dated 2017)
